The test system of data set [1] is elastase 3B, elastase 2A, and carboxypeptidase A1. Particulars: cited from earlier work.
Data set [2] in a line: Peptidase activity of desalted fecal protein extracts against 33-mer, 19-mer and 13-mer gliadin peptides (HPLC). Particulars: for Degradation capacity of new-born fecal samples against peptide / Degradation of peptide by feces samples / Degradation of peptide by fecal protein extract / Degradation of peptide by meconium protein extract: 60 μM peptide, 37 °C; for Degradation capacity of new-born fecal samples against peptide: in some cases intermediate peptides observed; for Degradation of peptide by feces samples: up to 12 month-olds; for Degradation of peptide by fecal protein extract / Degradation of peptide by meconium protein extract: 0.8 mg/mL extract; for Degradation of peptide by fecal protein extract: HPLC UV 215 nm; for Degradation of peptide by meconium protein extract: reverse-phase HPLC, UV 215 nm. The format is in vitro ADME, human. As for the experimental part:
Step 1: Sample preparation: Fecal samples were homogenized by mechanical stirring (90 min) in 10 mM Tris-HCl, pH 7.5 (1:5 w/v) and centrifuged (3100× g, 30 min). The supernatant was re-centrifuged at 30,000× g for 20 min.
Step 2: Ammonium sulphate fractionation: Each supernatant obtained from step 1 was precipitated with ammonium sulphate. The 80% ammonium sulphate precipitate (containing glutenase activity) was collected by centrifugation at 30,000× g, 20 min. The pellet was dissolved in 10 mM Tris-HCl (pH 7.5) and ammonium sulphate was eliminated by passing through a Sephadex G-25 (PD-10) column (GE Healthcare Live Sources, San Diego, CA USA) equilibrated with Tris-ClH (pH 5) in accordance with manufacturer’s indications.
Peptides used in this paper were: 33-mer ([…]), 19-mer (LGQQQPFPPQQPYPQPQPF), and 13-mer (LGQQQPFPPQQPY) synthetized by Bionova Científica, S.L. (Madrid, Spain) with purification grade around 96%.
We assayed 33-mer, 19-mer, and 13-mer hydrolysis as described previously, with modifications. Briefly, reaction mixtures containing 0.8 mg/mL of desalted protein extract (see step 2.2), 33-, 19-, or 13-mer peptide (60 μM) were incubated at 37 °C for 60 min and then stopped by boiling at 100 °C. 10-µL of each filtered aliquot was subjected to reverse-phase HPLC. The elution phases consisted of (A) MilliQ H2O containing 0.1% trifluoroacetic acid (TFA) (v/v) and (B) acetonitrile and 0.1% TFA (v/v). The eluate was monitored by measuring UV absorbance at 215 nm. Negative controls included runs with proteins denatured by boiling for 15 min, or 33-, 19-, and 13-mer peptides assayed without protein extract.

Setting [3] is: elastase 3B, elastase 2A, and carboxypeptidase A1 from human feces.

The text below walks through data of article PMC7589136, “The Human Digestive Tract Is Capable of Degrading Gluten from Birth” (International Journal of Molecular Sciences, 2020).

Like-named read-outs stand apart in the source and are kept apart here. Ends that are not written are not given here.

LGQQQPFPPQQPY [13-mer]: the “Hydrolysis of peptide by gastrointestinal proteases” value (“Hydrolysis of peptide” for short) in data set [1] (setting [3]) is given as “fully”. Further, in data set [2] (60 min, HPLC), the “Degradation capacity of new-born fecal samples against peptide” value is listed as “total degradation” and the “Degradation of peptide by feces samples” value was “able to degrade”. In addition, the “Degradation of peptide by fecal protein extract” value in data set [2] (volunteers >300 months old (the only group that did not degrade it completely), 60 min) is recorded as “not able to complete degrade”.

For the sequence LGQQQPFPPQQPYPQPQPF [19-mer], the “Hydrolysis of peptide” value in data set [1] was “fully”.

For the sequence “LQLQPFPQPQLPYPQPQLPYPQPQLPYPQPQPF [33-mer]”, the “Hydrolysis of peptide” value in data set [1] (setting [3]) is on record as “partially”. Also, the “Hydrolytic activity of meconium samples against peptide” value in data set [2] (all 21 meconium samples, HPLC) is “showed hydrolytic activity”. For the same sequence, the “Degradation of peptide by meconium protein extract” value in data set [2] (desalted meconium protein extract of newborn volunteer 15, 60 min, intermediate peptides generated) was “only partially degraded”; in data set [2] (desalted meconium protein extracts of newborn volunteers 3 and 9, 60 min) it was “completely degrade”. The “Degradation capacity of new-born fecal samples against peptide” value in data set [2] (60 min, HPLC) is reported as “total degradation”. Also, the “Degradation of peptide by feces samples” value in data set [2] (60 min, HPLC) is on record as “able to degrade”. The “Degradation of peptide by fecal protein extract” value in data set [2] (volunteers 0–2 months old, 60 min) was “completely degrade”; in data set [2] (volunteers 2–6 months old, 60 min) it was “completely degrade”; in data set [2] (volunteers over 48 months old, 1 h) it was “unable to completely degrade”.
